{
  "source": "patent US12649750B2",
  "about": "“Macrocyclic compounds, compositions, and methods of using thereof” (Sionna Therapeutics Inc., priority 2022, dated 2026)",
  "key": {"CFTR": {"molecular_target": "T1, CFTR (Homo sapiens, UniProt P13569, DEL508-508)", "T1 construct": "Primary human bronchial epithelial cells from a ΔF508 homozygous CF donor; host or cells: primary human bronchial epithelial cells (CF-HBE), ΔF508 homozygous donor", "T1 sequence (P13569 with tags, fused parts or gaps DEL508-508)": "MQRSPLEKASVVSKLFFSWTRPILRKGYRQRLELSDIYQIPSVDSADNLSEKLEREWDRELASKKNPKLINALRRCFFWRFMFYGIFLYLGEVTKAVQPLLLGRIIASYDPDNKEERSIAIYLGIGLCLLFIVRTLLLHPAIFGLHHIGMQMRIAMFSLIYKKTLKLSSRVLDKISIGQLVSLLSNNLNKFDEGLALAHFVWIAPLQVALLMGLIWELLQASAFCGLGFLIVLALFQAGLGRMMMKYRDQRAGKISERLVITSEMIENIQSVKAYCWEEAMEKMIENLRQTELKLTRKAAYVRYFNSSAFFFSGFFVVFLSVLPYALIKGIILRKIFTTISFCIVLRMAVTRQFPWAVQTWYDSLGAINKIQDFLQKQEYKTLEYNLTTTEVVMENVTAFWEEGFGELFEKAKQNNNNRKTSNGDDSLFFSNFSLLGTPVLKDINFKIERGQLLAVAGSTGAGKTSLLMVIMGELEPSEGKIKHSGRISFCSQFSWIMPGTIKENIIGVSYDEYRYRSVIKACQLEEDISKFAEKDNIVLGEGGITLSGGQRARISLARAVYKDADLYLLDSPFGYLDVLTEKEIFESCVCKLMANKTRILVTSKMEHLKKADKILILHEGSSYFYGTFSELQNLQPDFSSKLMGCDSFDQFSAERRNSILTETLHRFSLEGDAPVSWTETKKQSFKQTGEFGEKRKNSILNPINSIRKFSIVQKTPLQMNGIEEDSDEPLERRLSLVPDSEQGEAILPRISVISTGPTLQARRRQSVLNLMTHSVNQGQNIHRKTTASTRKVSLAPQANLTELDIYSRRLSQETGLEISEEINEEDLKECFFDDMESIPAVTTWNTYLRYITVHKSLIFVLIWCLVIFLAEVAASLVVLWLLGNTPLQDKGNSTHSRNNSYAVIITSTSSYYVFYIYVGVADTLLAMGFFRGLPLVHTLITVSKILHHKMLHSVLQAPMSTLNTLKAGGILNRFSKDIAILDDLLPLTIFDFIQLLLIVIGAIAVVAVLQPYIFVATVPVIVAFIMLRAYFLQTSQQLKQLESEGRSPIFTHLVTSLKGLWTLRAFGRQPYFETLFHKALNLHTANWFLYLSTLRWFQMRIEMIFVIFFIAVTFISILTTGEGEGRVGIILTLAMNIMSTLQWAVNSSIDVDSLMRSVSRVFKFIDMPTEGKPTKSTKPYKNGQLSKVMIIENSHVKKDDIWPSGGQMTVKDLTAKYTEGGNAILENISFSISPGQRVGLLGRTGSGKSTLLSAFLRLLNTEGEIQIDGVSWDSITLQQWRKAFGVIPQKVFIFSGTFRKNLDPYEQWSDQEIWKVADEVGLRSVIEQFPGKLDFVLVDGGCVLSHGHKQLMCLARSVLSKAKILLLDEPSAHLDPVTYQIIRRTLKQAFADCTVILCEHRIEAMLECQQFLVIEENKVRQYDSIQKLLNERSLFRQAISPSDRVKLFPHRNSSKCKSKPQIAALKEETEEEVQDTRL", "test": "TECC24 AUC fold over DMSO @10 μM, CFTR-mediated transepithelial chloride transport in CF-HBE cells", "format": "cell-based", "settings": "test agent AUC divided by DMSO vehicle AUC, primary CF-HBE cells, ΔF508 homozygous donor, 48 hours incubation", "summary_of_the_method": "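Primary ΔF508-homozygous CF bronchial epithelial cells on inserts were incubated 48 h at 36.5 °C with compound in IL-13-containing medium. VT and TEER were then recorded in current-clamp mode (pH 7.4 HEPES bath) with benzamil 10 μM, forskolin 10 μM, then CFTR inhibitor-172 20 μM. The IEQ AUC between forskolin and inhibitor was divided by vehicle AUC.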"}, "NBD1": {"molecular_target": "T2, NBD1 (Homo sapiens, UniProt P13569)", "T2 construct": "Purified recombinant NBD1 was produced using previously described methods; made in house", "T2 sequence (P13569 423-646 limits assumed)": "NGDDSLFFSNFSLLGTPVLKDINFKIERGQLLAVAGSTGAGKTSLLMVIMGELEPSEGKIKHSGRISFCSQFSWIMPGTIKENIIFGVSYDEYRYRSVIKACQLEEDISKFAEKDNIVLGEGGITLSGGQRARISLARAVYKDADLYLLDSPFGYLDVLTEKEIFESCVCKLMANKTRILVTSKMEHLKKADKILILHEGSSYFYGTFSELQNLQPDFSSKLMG", "test": "Aggregation analysis using differential static light scattering (DSLS), thermal stability of NBD1 (ΔTagg)", "format": "binding", "settings": "ΔTagg versus DMSO control, NBD1 0.2 mg/ml", "summary_of_the_method": "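Differential static light scattering read from 25° C. to 70° C. every 0.5° C., ramp 1° C./min, on recombinant NBD1 (0.2 mg/ml; Tris/NaCl/MgCl2 buffer with 2 mM ATP, 2 mM DTT, pH 7.6, 1% glycerol) plus compound. Reported ΔTagg subtracts averaged DMSO Tagg from inflection-point Tagg; categories A ≤5, B >5-10, C >10-25° C.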"}},
  "data": [
    {"smiles": "CC(Cc1cccc(C2(CNCC(F)(F)F)CCCC(C)(C)CS(=O)(=O)CCc3c(c(F)cc4[nH]ccc34)Oc3ccc(F)c(c3)-c3nc2nn3C)c1)C(=O)O", "note": "(single isomer, unassigned) [Compound 133B, 3-[3-[22,28-difluoro-3,10,10-trimethyl-12,12-dioxo-6-[(2,2,2-trifluoroethylamino)methyl]-24-oxa-12λ6-thia-3,4,19,30-tetrazapentacyclo[23.3.1.12,5.015,23.016,20]triaconta-1(29),2(30),4,15,17,20,22,25,27-nonaen-6-yl]phenyl]-2-methyl-propanoic Acid]", "values": [
      {"measurement": "TECC (AUC, 10 μM)", "setting": "CFTR", "value": "A (a TECC value less than 12 is marked “A”)"},
      {"measurement": "DSLS 3D (100 μM ΔT)", "setting": "NBD1", "value": "B (a value above 5 °C and less than or equal to 10 °C is marked “B”)"}
    ]},
    {"smiles": "Cn1nc2nc1-c1cc(ccc1F)Oc1c(F)cc3[nH]ccc3c1CCS(=O)(=O)CC(C)(C)CCCC2(C)c1cccc(CCCO)c1", "note": "(stereo not drawn) [Compound 64, 3-[3-(22,28-Difluoro-3,6,10,10-tetramethyl-12,12-dioxo-24-oxa-12λ6-thia-3,4,19,30-tetrazapentacyclo[23.3.1.12,5.015,23.016,20]triaconta-1(29),2(30),4,15,17,20,22,25,27-nonaen-6-yl)phenyl]propan-1-ol]", "values": [
      {"measurement": "TECC (AUC, 10 μM)", "setting": "CFTR", "value": "B (a value between 12-20 is marked “B”)"},
      {"measurement": "DSLS 3D (100 μM ΔT)", "setting": "NBD1", "value": "C (a value greater than 10 °C and less than or equal to 25 °C is marked “C”)"}
    ]},
    {"smiles": "Cn1nc2nc1-c1cc(ccc1F)Oc1c(F)cc3[nH]ccc3c1CCS(=O)(=O)CC(C)(C)CCCC2(C)c1cccc(CC(C(=O)O)C(F)(F)F)c1", "note": "(stereo not drawn) [Compound 168, 2-[[3-(22,28-Difluoro-3,6,10,10-tetramethyl-12,12-dioxo-24-oxa-12λ6-thia-3,4,19,30-tetrazapentacyclo[23.3.1.12,5.015,23.016,20]triaconta-1(29),2(30),4,15,17,20,22,25,27-nonaen-6-yl)phenyl]methyl]-3,3,3-trifluoro-propanoic acid]", "values": [
      {"measurement": "TECC (AUC, 10 μM)", "setting": "CFTR", "value": "B (a value between 12-20 is marked “B”)"},
      {"measurement": "DSLS 3D (100 μM ΔT)", "setting": "NBD1", "value": "C (a value greater than 10 °C and less than or equal to 25 °C is marked “C”)"}
    ]},
    {"smiles": "C[C@H](Cc1cccc(C2CCCC(C)(C)CS(=O)(=O)CCc3c(c(F)cc4[nH]ccc34)C(=O)c3cccc(c3)-c3ccn2n3)c1)C(=O)O", "note": "(stereo partly drawn) [Compound 164, (2R)-3-[3-(22-Fluoro-10,10-dimethyl-12,12,24-trioxo-12λ6-thia-5,19,30-triazapentacyclo[23.3.1.12,5.015,23.016,20]triaconta-1(29),2(30),3,15,17,20,22,25,27-nonaen-6-yl)phenyl]-2-methyl-propanoic acid]", "values": [
      {"measurement": "TECC (AUC, 10 μM)", "setting": "CFTR", "value": "A (a TECC value less than 12 is marked “A”)"},
      {"measurement": "DSLS 3D (100 μM ΔT)", "setting": "NBD1", "value": "A (an ΔTagg value less than or equal to 5 °C is marked “A”)"}
    ]},
    {"smiles": "C[C@@H](Cc1cccc(C2(C)CCCC(C)(C)CS(=O)(=O)CCc3c(c(F)cc4[nH]ccc34)[S+]([O-])c3ccc(F)c(c3)-c3nc2nn3C)n1)C(=O)O", "note": "(single isomer, unassigned) [Compound 179D]", "values": [
      {"measurement": "TECC (AUC, 10 μM)", "setting": "CFTR", "value": "A (a TECC value less than 12 is marked “A”)"},
      {"measurement": "DSLS 3D (100 μM ΔT)", "setting": "NBD1", "value": "A (an ΔTagg value less than or equal to 5 °C is marked “A”)"}
    ]},
    {"smiles": "C[C@@H](Cc1cccc([C@@]2(C)CCCC(C)(C)CS(=O)(=O)CCc3c(c(F)cc4[nH]ccc34)Oc3ccc(F)c(c3)-c3csc2n3)c1)C(=O)O", "note": "[Compound 191, (2S)-3-[3-[(6R)-22,28-Difluoro-6,10,10-trimethyl-12,12-dioxo-24-oxa-4,12λ6-dithia-19,30-diazapentacyclo[23.3.1.12,5.015,23.016,20]triaconta-1(29),2,5(30),15,17,20,22,25,27-nonaen-6-yl]phenyl]-2-methyl-propanoic Acid]", "values": [
      {"measurement": "TECC (AUC, 10 μM)", "setting": "CFTR", "value": "B (a value between 12-20 is marked “B”)"},
      {"measurement": "DSLS 3D (100 μM ΔT)", "setting": "NBD1", "value": "C (a value greater than 10 °C and less than or equal to 25 °C is marked “C”)"}
    ]},
    {"smiles": "CC(Cc1cccc(C2(C)CCCC(C)(C)CS(=O)(=O)CCc3c(c(F)cc4[nH]ccc34)Cn3cc(ccc3=O)-c3nc2nn3C)c1)C(=O)O", "note": "(single isomer, unassigned) [Compound 132A, 3-[3-(22-fluoro-3,6,10,10-tetramethyl-12,12,26-trioxo-12λ6-thia-3,4,19,25,30-pentazapentacyclo-[23.3.1.12,5.015,23.016,20]triaconta-1(29),2(30),4,15,17,20,22,27-octaen-6-yl)phenyl]-2-methyl-propanoic Acid]", "values": [
      {"measurement": "TECC (AUC, 10 μM)", "setting": "CFTR", "value": "A (a TECC value less than 12 is marked “A”)"},
      {"measurement": "DSLS 3D (100 μM ΔT)", "setting": "NBD1", "value": "A (an ΔTagg value less than or equal to 5 °C is marked “A”)"}
    ]},
    {"smiles": "Cn1nc2nc1-c1cc(ccc1F)C(O)c1c(F)cc3[nH]ccc3c1CCS(=O)(=O)CC(C)(C)CCCC2(C)c1cccc(CCC(=O)O)c1", "note": "(single isomer, unassigned) [Compound 30D, 3-[3-(22,28-difluoro-24-hydroxy-3,6,10,10-tetramethyl-12,12-dioxo-12lambda6-thia-3,4,19,30-tetrazapentacyclo[23.3.1.12,5.015,23.016,20]triaconta-1(29),2(30),4,15,17,20,22,25,27-nonaen-6-yl)phenyl]propanoic acid]", "values": [
      {"measurement": "TECC (AUC, 10 μM)", "setting": "CFTR", "value": "A (a TECC value less than 12 is marked “A”)"},
      {"measurement": "DSLS 3D (100 μM ΔT)", "setting": "NBD1", "value": "C (a value greater than 10 °C and less than or equal to 25 °C is marked “C”)"}
    ]},
    {"smiles": "C[C@@H](Cc1cccc(C2(C)CCCC(C)(C)CS(=O)(=O)CCc3c(c(F)cc4[nH]ccc34)Oc3ccc(F)c(c3)-c3nc2nn3C)c1)C(=O)N(C)O", "note": "(single isomer, unassigned) [Compound 187]", "values": [
      {"measurement": "TECC (AUC, 10 μM)", "setting": "CFTR", "value": "A (a TECC value less than 12 is marked “A”)"},
      {"measurement": "DSLS 3D (100 μM ΔT)", "setting": "NBD1", "value": "B (a value above 5 °C and less than or equal to 10 °C is marked “B”)"}
    ]},
    {"smiles": "C[C@H](Cc1cccc([C@@]2(C)CCCC(C)(C)CS(=O)(=O)CCc3c(c(F)cc4[nH]ccc34)[S+]([O-])c3ccnc(c3)-c3nc2nn3C)c1)C(=O)O", "note": "(stereo partly drawn) [Compound 231, (2R)-3-[3-[(6R)-22-Fluoro-3,6,10,10-tetramethyl-12,12,24-trioxo-12λ6,24λ4-dithia-3,4,19,28,30-pentazapentacyclo[23.3.1.12,5.015,23.016,20]triaconta-1(29),2(30),4,15,17,20,22,25,27-nonaen-6-yl]phenyl]-2-methyl-propanoic Acid]", "values": [
      {"measurement": "TECC (AUC, 10 μM)", "setting": "CFTR", "value": "C (a value between 20 and 80 is marked “C”)"},
      {"measurement": "DSLS 3D (100 μM ΔT)", "setting": "NBD1", "value": "C (a value greater than 10 °C and less than or equal to 25 °C is marked “C”)"}
    ]},
    {"smiles": "Cc1cn2nc1-c1cc(ccc1F)Oc1c(F)cc3[nH]ccc3c1CCS(=O)(=O)CC(C)(C)CCCC2c1cccc(CCC(=O)O)c1", "note": "(racemic) [Compound 66, 3-[3-(22,28-Difluoro-3,10,10-trimethyl-12,12-dioxo-24-oxa-12λ6-thia-5,19,30-triazapentacyclo[23.3.1.12,5.015,23.016,20]triaconta-1(29),2(30),3,15,17,20,22,25,27-nonaen-6-yl)phenyl]propanoic Acid]", "values": [
      {"measurement": "TECC (AUC, 10 μM)", "setting": "CFTR", "value": "B (a value between 12-20 is marked “B”)"},
      {"measurement": "DSLS 3D (100 μM ΔT)", "setting": "NBD1", "value": "C (a value greater than 10 °C and less than or equal to 25 °C is marked “C”)"}
    ]},
    {"smiles": "CC1(C)COCC(c2cccc(CCC(=O)O)c2)n2ccc(n2)-c2cc(ccc2F)Oc2c(F)cc3[nH]ccc3c2CCS(=O)(=O)C1", "note": "(stereo not drawn) [Compound 58, 3-[3-(22,28-Difluoro-10,10-dimethyl-12,12-dioxo-8,24-dioxa-12λ6-thia-5,19,30-triazapentacyclo[23.3.1.12,5.015,23.016,20]triaconta-1(29),2(30),3,15,17,20,22,25,27-nonaen-6-yl)phenyl]propanoic Acid]", "values": [
      {"measurement": "TECC (AUC, 10 μM)", "setting": "CFTR", "value": "B (a value between 12-20 is marked “B”)"},
      {"measurement": "DSLS 3D (100 μM ΔT)", "setting": "NBD1", "value": "C (a value greater than 10 °C and less than or equal to 25 °C is marked “C”)"}
    ]},
    {"smiles": "C[C@@H](Cc1cccc(C2(C)CCCC(C)(C)CS(=O)(=O)CCc3c(c(F)cc4[nH]ccc34)Oc3ccnc(c3)-c3nc2nn3C)n1)C(=O)O", "note": "(single isomer, unassigned) [Compound 266B]", "values": [
      {"measurement": "TECC (AUC, 10 μM)", "setting": "CFTR", "value": "C (a value between 20 and 80 is marked “C”)"},
      {"measurement": "DSLS 3D (100 μM ΔT)", "setting": "NBD1", "value": "C (a value greater than 10 °C and less than or equal to 25 °C is marked “C”)"}
    ]},
    {"smiles": "Cn1nc2nc1-c1cc(ccc1F)Oc1c(F)cc3[nH]ccc3c1CCS(=O)(=O)CC(C)(C)CCCC2(C)c1ccc2c(c1)CC(C(=O)O)C2", "note": "(stereo not drawn) [Compound 128, 5-(22,28-Difluoro-3,6,10,10-tetramethyl-12,12-dioxo-24-oxa-12λ6-thia-3,4,19,30-tetrazapentacyclo[23.3.1.12,5.015,23.016,20]triaconta-1(29),2(30),4,15,17,20,22,25,27-nonaen-6-yl)indane-2-carboxylic Acid]", "values": [
      {"measurement": "TECC (AUC, 10 μM)", "setting": "CFTR", "value": "A (a TECC value less than 12 is marked “A”)"},
      {"measurement": "DSLS 3D (100 μM ΔT)", "setting": "NBD1", "value": "C (a value greater than 10 °C and less than or equal to 25 °C is marked “C”)"}
    ]},
    {"smiles": "COCC(Cc1cccc(C2(C)CCCC(C)(C)CS(=O)(=O)CCc3c(c(F)cc4[nH]ccc34)Oc3ccc(F)c(c3)-c3nc2nn3C)c1)C(=O)O", "note": "(single isomer, unassigned) [Compound 153C, 2-[[3-(22,28-difluoro-3,6,10,10-tetramethyl-12,12-dioxo-24-oxa-12λ6-thia-3,4,19,30-tetrazapentacyclo[23.3.1.12,5.015,23.016,20]triaconta-1(29),2(30),4,15,17,20,22,25,27-nonaen-6-yl)phenyl]methyl]-3-methoxy-propanoic Acid]", "values": [
      {"measurement": "TECC (AUC, 10 μM)", "setting": "CFTR", "value": "A (a TECC value less than 12 is marked “A”)"},
      {"measurement": "DSLS 3D (100 μM ΔT)", "setting": "NBD1", "value": "A (an ΔTagg value less than or equal to 5 °C is marked “A”)"}
    ]}
  ]
}
